We go through 14 compounds from ChEMBL document CHEMBL3991601, “The target landscape of clinical kinase drugs” (Science, 2017).

The target in assay [1] is Rho-associated protein kinase 2 (Homo sapiens, UniProt O75116).
Assay [2] has as its target T1, Serine/threonine-protein kinase ULK1 (Homo sapiens, UniProt O75385).
T1 sequence (O75385 whole entry): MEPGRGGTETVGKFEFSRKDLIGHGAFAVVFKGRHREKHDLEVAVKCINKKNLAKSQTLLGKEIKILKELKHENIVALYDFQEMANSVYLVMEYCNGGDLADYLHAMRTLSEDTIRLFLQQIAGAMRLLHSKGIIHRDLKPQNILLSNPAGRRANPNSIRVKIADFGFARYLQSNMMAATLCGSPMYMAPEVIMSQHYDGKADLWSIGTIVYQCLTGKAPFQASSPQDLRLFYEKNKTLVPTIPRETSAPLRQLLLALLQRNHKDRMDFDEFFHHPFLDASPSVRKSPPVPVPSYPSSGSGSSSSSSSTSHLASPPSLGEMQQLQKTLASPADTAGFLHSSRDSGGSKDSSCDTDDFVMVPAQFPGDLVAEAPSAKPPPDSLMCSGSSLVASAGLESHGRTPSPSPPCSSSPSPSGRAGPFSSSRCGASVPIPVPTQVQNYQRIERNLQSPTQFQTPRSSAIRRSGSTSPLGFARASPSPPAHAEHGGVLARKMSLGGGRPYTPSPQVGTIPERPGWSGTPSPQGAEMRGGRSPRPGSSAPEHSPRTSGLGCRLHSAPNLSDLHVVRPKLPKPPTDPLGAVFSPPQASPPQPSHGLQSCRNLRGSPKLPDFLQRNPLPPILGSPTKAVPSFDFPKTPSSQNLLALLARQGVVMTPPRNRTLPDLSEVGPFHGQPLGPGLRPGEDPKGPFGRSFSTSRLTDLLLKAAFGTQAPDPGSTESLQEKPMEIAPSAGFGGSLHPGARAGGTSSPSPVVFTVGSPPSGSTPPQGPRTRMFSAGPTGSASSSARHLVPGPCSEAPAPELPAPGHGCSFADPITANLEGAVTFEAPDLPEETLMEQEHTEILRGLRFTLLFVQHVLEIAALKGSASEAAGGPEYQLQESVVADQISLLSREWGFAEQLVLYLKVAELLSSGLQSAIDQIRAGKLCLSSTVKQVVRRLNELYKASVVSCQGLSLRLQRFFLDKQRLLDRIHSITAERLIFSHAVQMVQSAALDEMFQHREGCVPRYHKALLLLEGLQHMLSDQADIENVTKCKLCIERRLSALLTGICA

The target of assay [3] is 26S proteasome regulatory subunit 6B (Homo sapiens, UniProt P43686).
Another assay deals with T2, Rab-like protein 3 (Homo sapiens, UniProt Q5HYI8).
T2 sequence (Q5HYI8 whole entry): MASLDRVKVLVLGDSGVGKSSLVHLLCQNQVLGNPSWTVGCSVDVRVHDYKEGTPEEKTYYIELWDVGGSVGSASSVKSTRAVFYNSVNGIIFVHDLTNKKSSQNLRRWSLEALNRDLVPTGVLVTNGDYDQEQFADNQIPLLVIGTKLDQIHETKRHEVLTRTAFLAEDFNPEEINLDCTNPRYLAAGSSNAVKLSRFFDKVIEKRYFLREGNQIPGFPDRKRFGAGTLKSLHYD

In assay [4] the target is Mitogen-activated protein kinase 10 (Homo sapiens, UniProt P53779).
The target of assay [5] is Citron Rho-interacting kinase (Homo sapiens, UniProt O14578).
Assay [6] concerns the target T3, Mitogen-activated protein kinase kinase kinase 6 (Homo sapiens, UniProt O95382).
T3 sequence (O95382 whole entry): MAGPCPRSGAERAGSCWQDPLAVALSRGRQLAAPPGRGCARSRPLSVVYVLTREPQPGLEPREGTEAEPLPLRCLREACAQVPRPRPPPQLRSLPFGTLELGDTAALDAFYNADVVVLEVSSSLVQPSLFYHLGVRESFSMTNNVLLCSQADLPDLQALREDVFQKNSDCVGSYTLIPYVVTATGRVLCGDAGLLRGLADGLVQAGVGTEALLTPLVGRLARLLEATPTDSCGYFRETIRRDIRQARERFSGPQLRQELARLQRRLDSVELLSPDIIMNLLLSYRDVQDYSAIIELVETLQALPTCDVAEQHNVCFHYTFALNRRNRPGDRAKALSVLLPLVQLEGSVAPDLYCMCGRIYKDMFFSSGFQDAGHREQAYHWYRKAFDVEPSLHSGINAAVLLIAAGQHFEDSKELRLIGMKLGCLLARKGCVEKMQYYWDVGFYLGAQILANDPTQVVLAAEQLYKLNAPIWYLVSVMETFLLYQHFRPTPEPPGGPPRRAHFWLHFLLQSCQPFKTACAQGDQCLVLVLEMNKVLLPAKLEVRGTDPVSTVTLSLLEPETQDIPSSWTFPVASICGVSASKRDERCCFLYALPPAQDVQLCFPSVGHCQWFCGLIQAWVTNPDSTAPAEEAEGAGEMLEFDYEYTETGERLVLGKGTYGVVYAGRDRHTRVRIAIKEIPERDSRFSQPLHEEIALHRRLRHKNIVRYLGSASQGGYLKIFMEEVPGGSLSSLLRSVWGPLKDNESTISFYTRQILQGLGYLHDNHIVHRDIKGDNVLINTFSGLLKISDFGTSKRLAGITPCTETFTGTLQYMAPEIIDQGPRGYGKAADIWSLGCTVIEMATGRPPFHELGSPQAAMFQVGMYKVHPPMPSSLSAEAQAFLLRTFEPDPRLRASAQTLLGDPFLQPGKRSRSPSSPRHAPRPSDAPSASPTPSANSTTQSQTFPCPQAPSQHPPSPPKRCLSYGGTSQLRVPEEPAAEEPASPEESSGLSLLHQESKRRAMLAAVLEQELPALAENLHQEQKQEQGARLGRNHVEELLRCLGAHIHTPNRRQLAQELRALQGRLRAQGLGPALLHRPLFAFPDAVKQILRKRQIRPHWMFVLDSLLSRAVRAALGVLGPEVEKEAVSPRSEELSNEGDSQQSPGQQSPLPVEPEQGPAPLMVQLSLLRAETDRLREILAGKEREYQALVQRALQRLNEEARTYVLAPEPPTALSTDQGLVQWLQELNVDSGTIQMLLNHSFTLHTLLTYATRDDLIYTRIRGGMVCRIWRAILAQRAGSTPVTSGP

Calls of active or inactive are those of the source. For most assays here, no stated cut-off is given here; in the data, actives have a measured Kd and inactives only a lower limit.

As a reminder, the Kd is the free concentration of one partner at which half of the binding sites on the other are occupied at equilibrium, for simple one-to-one binding.

Mitogen-activated protein kinase 10, sequence (P53779 whole entry): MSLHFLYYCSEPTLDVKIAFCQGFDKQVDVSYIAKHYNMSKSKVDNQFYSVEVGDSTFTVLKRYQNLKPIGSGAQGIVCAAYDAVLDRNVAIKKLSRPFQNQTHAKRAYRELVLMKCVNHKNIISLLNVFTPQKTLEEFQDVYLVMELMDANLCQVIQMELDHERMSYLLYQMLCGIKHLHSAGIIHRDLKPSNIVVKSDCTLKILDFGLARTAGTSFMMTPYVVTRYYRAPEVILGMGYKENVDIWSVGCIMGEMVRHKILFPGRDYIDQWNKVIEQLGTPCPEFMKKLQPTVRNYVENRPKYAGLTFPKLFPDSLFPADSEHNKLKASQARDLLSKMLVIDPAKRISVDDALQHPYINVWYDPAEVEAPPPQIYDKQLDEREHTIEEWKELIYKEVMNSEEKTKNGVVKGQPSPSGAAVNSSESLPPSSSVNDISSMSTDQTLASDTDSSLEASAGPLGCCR
Rho-associated protein kinase 2, sequence (O75116 whole entry): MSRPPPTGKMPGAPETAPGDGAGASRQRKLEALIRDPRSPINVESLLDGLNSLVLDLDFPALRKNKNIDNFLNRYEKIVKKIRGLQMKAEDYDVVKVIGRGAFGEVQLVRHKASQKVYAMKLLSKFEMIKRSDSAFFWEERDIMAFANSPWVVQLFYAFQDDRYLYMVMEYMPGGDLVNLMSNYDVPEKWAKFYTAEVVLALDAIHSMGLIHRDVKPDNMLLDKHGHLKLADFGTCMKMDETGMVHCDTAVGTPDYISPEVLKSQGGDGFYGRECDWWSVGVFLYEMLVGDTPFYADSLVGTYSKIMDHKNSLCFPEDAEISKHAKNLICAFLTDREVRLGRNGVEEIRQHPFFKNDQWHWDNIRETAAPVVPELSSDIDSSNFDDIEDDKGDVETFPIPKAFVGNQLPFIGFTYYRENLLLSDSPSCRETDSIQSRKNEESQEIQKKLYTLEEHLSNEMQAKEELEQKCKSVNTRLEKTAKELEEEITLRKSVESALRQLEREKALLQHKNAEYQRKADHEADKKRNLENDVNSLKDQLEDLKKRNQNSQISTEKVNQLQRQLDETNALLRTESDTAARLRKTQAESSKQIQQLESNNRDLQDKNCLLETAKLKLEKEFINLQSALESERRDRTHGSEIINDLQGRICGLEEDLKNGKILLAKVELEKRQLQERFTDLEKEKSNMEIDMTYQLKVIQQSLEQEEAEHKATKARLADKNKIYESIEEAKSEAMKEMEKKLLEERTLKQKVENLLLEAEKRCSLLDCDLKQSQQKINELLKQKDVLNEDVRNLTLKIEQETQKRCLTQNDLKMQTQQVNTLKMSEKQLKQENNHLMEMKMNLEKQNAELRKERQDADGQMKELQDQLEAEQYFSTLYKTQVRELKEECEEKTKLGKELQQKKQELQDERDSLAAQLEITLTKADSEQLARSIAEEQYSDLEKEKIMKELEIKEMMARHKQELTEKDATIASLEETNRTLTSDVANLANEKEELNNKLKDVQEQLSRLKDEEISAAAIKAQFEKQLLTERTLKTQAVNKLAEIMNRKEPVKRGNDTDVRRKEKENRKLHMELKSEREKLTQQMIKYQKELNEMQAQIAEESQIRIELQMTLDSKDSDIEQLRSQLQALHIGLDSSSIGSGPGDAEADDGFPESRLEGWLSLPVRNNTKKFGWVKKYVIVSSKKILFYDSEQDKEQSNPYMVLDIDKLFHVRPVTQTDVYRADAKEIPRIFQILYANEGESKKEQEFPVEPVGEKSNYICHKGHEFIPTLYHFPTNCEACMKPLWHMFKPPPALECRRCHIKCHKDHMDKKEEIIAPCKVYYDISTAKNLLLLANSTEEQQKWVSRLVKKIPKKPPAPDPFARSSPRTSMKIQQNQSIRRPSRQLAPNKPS
Citron Rho-interacting kinase, sequence (O14578 whole entry): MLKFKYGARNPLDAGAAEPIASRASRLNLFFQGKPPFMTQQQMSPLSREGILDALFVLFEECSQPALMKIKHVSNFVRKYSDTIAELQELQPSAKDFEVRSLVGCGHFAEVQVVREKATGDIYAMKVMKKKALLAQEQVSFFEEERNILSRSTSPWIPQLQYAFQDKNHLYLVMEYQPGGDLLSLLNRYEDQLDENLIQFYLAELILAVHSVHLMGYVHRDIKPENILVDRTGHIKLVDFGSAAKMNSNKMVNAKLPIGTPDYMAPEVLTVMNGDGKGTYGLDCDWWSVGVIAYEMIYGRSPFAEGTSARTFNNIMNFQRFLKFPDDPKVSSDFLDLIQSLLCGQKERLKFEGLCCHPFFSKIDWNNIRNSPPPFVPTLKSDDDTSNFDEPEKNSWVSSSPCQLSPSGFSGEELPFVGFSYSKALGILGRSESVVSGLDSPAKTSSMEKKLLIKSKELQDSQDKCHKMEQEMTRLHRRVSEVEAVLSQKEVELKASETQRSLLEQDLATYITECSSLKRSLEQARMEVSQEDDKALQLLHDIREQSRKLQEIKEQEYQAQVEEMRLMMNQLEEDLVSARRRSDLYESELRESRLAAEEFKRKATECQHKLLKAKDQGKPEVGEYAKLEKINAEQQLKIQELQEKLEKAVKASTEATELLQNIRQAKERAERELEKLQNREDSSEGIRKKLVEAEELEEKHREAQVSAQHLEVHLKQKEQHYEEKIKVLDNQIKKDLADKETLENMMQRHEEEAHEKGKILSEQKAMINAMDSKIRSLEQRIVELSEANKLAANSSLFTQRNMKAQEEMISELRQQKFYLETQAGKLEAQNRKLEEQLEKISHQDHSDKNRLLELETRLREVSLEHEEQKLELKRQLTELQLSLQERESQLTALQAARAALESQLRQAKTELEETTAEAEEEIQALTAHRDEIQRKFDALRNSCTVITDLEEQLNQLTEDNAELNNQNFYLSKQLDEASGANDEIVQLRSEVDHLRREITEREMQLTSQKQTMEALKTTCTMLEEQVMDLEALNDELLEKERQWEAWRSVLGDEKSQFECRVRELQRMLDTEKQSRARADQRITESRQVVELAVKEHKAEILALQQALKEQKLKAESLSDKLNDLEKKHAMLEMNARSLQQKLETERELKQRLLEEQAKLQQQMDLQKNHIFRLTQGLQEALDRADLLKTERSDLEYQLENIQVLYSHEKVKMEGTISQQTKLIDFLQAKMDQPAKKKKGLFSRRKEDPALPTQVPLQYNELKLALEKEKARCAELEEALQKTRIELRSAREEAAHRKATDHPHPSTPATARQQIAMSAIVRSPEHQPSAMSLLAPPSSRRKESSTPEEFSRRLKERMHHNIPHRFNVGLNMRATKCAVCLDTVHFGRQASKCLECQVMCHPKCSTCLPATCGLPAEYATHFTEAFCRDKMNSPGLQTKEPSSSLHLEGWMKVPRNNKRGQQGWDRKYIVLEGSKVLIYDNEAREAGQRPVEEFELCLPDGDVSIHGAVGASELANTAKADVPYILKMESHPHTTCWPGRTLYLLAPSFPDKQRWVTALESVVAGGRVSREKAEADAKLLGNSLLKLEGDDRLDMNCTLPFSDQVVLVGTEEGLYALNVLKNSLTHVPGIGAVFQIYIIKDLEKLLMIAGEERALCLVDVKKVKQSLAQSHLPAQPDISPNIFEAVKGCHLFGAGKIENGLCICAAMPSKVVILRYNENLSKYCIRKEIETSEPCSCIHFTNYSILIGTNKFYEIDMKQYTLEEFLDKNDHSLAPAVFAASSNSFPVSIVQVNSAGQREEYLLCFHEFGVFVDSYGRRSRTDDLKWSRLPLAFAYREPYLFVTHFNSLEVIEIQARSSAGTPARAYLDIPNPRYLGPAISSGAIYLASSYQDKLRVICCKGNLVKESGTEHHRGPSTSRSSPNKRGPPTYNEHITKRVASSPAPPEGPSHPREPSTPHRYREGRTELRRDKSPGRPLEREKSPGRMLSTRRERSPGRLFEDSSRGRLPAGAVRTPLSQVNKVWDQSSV
26S proteasome regulatory subunit 6B, sequence (P43686 whole entry): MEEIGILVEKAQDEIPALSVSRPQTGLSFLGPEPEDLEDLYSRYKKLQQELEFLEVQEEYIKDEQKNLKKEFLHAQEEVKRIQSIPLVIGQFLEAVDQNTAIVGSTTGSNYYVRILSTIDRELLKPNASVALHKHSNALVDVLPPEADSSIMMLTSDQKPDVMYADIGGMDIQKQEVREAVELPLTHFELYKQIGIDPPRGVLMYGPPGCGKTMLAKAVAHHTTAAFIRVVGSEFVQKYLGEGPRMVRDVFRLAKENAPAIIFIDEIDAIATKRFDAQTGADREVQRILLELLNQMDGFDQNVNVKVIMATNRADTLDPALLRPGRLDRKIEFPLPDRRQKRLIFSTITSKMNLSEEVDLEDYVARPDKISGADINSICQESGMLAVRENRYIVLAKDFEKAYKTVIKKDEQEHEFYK

Consider `C[C@@H]1CN(Cc2ccc(F)cc2)[C@@H](C)CN1C(=O)c1cc2c(C(=O)C(=O)N(C)C)cn(C)c2cc1Cl` [TALMAPIMOD], for which the Kd (in assay [1]; in assay [2]; in assay [3]; at Rab-like protein 3; in assay [4]; in assay [5]) was > 30 µM (inactive) throughout. Also, the Kd in assay [6] is > 30 µM (inactive).
Regarding `CCS(=O)(=O)N1CC(CC#N)(n2cc(-c3ncnc4[nH]ccc34)cn2)C1` [BARICITINIB], the Kd in assay [1] is 0.756 µM (active); in assay [2] it was 0.81 µM (active); in assay [3], > 30 µM (inactive); on Rab-like protein 3, > 30 µM (inactive); in assay [4], > 30 µM (inactive); in assay [5], 4.36 µM (active). The Kd in assay [6] is > 30 µM (inactive).
For the compound `COc1ccc(-c2ccc3c(N4CCOC[C@@H]4C)nc(N4CCOC[C@@H]4C)nc3n2)cc1CO` [AZD-8055], the Kd (in assay [1]; in assay [2]; in assay [3]; on Rab-like protein 3; in assay [4]; in assay [5]) was > 30 µM (inactive) throughout. Also, the Kd in assay [6] is > 30 µM (inactive).
With `CN1CC[C@@H](c2c(O)cc(O)c3c(=O)cc(-c4ccccc4Cl)oc23)[C@@H]1CO`, the Kd (in assay [1]; in assay [2]; in assay [3]; on Rab-like protein 3; in assay [4]; in assay [5]) was > 30 µM (inactive) throughout. The Kd in assay [6] is > 30 µM (inactive).
In the case of `C=CC(=O)N1CCC(Oc2cc3c(Nc4ccc(Cl)c(Cl)c4F)ncnc3cc2OC)CC1` [POZIOTINIB], the Kd (in assay [1]; in assay [2]; in assay [3]; on Rab-like protein 3; in assay [4]; in assay [5]) was > 30 µM (inactive) each time. For the same compound, in assay [6], the Kd was > 30 µM (inactive).
On to `Cn1cc(-c2ccc3nnc(C(F)(F)c4ccc5ncccc5c4)n3n2)cn1` [JNJ-38877605], for which the Kd (in assay [1]; in assay [2]; in assay [3]; on Rab-like protein 3; in assay [4]; in assay [5]) was > 30 µM (inactive) throughout. Besides, the Kd in assay [6] was > 30 µM (inactive).
Take `Cc1ccc(-n2nc(C(C)(C)C)cc2NC(=O)NCc2cc(F)ccc2Oc2ccc3c(cnn3CCO)c2)cc1` [PEXMETINIB]: the Kd in assay [1] is > 30 µM (inactive); in assay [2], > 30 µM (inactive); in assay [3] it was > 30 µM (inactive); at Rab-like protein 3, > 30 µM (inactive); in assay [4], 0.195 µM; in assay [5] it was > 30 µM (inactive). In addition, the Kd in assay [6] was > 30 µM (inactive).
`Cc1c(F)cc(C(=O)NC2CC2)cc1-c1ccc(C(=O)NCC(C)(C)C)cn1` [LOSMAPIMOD]: the Kd (in assay [1]; in assay [2]; in assay [3]; on Rab-like protein 3; in assay [4]; in assay [5]) was > 30 µM (inactive) throughout. Moreover, the Kd in assay [6] was > 30 µM (inactive).
Take `COc1cc(N2CCC(N3CCN(C)CC3)CC2)ccc1Nc1ncnc(Nc2ccccc2S(=O)(=O)C(C)C)n1` [ASP-3026]: the Kd (in assay [1]; in assay [2]; in assay [3]; on Rab-like protein 3; in assay [4]; in assay [5]) was > 30 µM (inactive) in each case. Further, the Kd in assay [6] is > 30 µM (inactive).
Consider `CNC(=O)c1ccc(-c2cnc3ncc(Cc4ccc5ncccc5c4)n3n2)cc1F` [CAPMATINIB], for which the Kd (in assay [1]; in assay [2]; in assay [3]; on Rab-like protein 3; in assay [4]; in assay [5]) was > 30 µM (inactive) in each case. Also, in assay [6], the Kd was > 30 µM (inactive).
Turning to `C[C@@H](Nc1cc(F)cc(F)c1)c1cc(C(=O)N(C)C)cc2c(=O)cc(N3CCOCC3)oc12` [AZD-8186], the Kd (in assay [1]; in assay [2]; in assay [3]; at Rab-like protein 3; in assay [4]; in assay [5]) was > 30 µM (inactive) in each case. The Kd in assay [6] is > 30 µM (inactive).
In the case of `C[C@@H](c1ccc2nccn2c1)n1nnc2ncc(-c3cnn(C)c3)nc21` [SAVOLITINIB], the Kd (in assay [1]; in assay [2]; in assay [3]; at Rab-like protein 3; in assay [4]; in assay [5]) was > 30 µM (inactive) in each case. Moreover, the Kd in assay [6] was > 30 µM (inactive).
In the case of `CCc1cnn2c(NCc3ccc[n+]([O-])c3)cc(N3CCCC[C@H]3CCO)nc12` [DINACICLIB], the Kd (in assay [1]; in assay [2]; in assay [3]; on Rab-like protein 3; in assay [4]; in assay [5]) was > 30 µM (inactive) throughout. Further, the Kd in assay [6] is > 30 µM (inactive).
With `CNC(=O)c1cc(Oc2ccc(NC(=O)Nc3ccc(Cl)c(C(F)(F)F)c3)c(F)c2)ccn1` [REGORAFENIB], the Kd (in assay [1]; in assay [2]; in assay [3]; at Rab-like protein 3; in assay [4]; in assay [5]) was > 30 µM (inactive) throughout. Further, the Kd in assay [6] was > 30 µM (inactive).
